Data reported in US5962534A, “Regulating gene expression using retinoids with CH2 OH or related groups at the side chain terminal position” (Cornell Research Foundation, Inc., priority 1997, dated 1999).
Read-outs that look alike come from different tables or passages of the source.

Tests used:
RAR-α = molecular target: T1, RAR-α (Mus musculus, UniProt P11416); assay: Competitive binding of 3H-all-trans-retinoic acid to RAR-α; settings: concentration to inhibit 50% binding of 3H-all-trans-retinoic acid (10 nM); mean ± SD, at least 3 replicate experiments
T1 construct: expressed in transfected cells; host or cells: COS-1
T1 sequence (P11416 1-462): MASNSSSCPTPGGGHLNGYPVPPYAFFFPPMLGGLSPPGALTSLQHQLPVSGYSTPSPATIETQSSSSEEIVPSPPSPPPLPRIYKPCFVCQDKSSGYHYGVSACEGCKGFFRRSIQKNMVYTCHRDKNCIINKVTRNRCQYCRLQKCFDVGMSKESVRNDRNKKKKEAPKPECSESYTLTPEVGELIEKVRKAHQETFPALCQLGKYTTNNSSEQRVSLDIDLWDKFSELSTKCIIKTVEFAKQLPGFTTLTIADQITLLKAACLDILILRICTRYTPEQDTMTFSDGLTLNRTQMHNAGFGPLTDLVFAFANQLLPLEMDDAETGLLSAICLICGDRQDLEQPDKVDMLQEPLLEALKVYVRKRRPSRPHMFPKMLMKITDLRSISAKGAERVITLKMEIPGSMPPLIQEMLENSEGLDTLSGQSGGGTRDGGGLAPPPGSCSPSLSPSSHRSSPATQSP
Protocol: (§6) Retinoids were assayed for their ability to bind members of the family of the retinoic acid receptors, the RARs, as follows:
(§7) COS-1 cells were transfected by DEAE-dextran with pSG5 expression vectors containing cDNAs for mouse RARs α, β, or γ or RXRs α, β, or γ. […] Nucleosol or cytosol fractions were prepared as described in Nervi, C., et al (30) and Nervi, C., et al (31) and stored at -70° C. until use. Aliquots of nucleosol or cytosol were incubated in nuclei lysis buffer as described in Nervi, C., et al (30) with tritiated ligands for 4 h at 4° C. […] For competitive binding assays, the incubations were performed with increasing concentrations of unlabeled competing ligand and a fixed concentration of the radioligand (10 nM ^3 H-retinoic acid). In saturation kinetic studies, incubations were performed in the presence of increasing concentrations of the indicated radioligand. For all binding assays, bound was separated from free radioactivity as described in Levin, A. A., et al (29).

RXRs α, β, or γ = assay: Inhibition of 3H-9-cis retinoic acid binding to RXRs; design: species or system mouse; settings: for inhibition of 3H-9-cis retinoic acid binding to RXRs: data not shown
Text: See Levin, A. A., et al (29).

[1] = tested on: cellular retinoic acid binding protein I (CRABP I); assay: Inhibition of all-trans-3H-retinoic acid binding to CRABP I; settings: data not shown
[2] = tested on: RARE-β-galactosidase (F9-RARE-β-galactosidase reporter cell line); assay: Transcription of RARE-β-galactosidase in F9-RARE-β-galactosidase reporter cell line; assay type: cell-based; settings: Mus musculus; media lacking serum
Protocol: Cells were treated with different concentrations of retinoids in media lacking serum, harvested and assayed for β-galactosidase activity. […] The β-galactosidase activity in this cell line reflects the activation of the RARs.

Hoxa-1 = Hoxa-1 gene expression in F9 stem cells by Northern blot; assay type: cell-based; settings: Mus musculus, F9, 72 h, read-out: Hoxa-1 transcripts induction
Text: (§1) Teratocarcinoma stem cells can be induced to differentiate in monolayer culture by retinoic acid over a 3-4 day period into nonmalignant endoderm cells resembling the extraembryonic endoderm of the mouse blastocyst as described in Gudas, L. J., et al (27). The F9 teratocarcinoma stem cell line is used as a model tumor cell differentiation system because F9 stem cells share similar biochemical, immunological and morphological characteristics with early mouse embryonic stem cells and additionally, large numbers of cells can be cultured and experimentally manipulated. The expression of several homeobox genes including Hoxa-1 is induced by RA in mouse teratocarcinoma cell lines as described in LaRosa, G. J., et al (34) and LaRosa, G. J., et al (35). […] See LaRosa, G. L, et al (34). Other genes such as laminin B1 are activated subsequent to the activation of Hox 1.6 by retinoic acid as described in Vasios, G. W., et al (36).

laminin B1 = assay: Laminin B1 gene expression in F9 stem cells by Northern blot; assay type: cell-based; settings: Mus musculus, F9, 72 h, read-out: Laminin B1 expression induction
Text: as §1

[3] = Metabolism / half-life of retinoids in F9 cells; assay type: in vitro ADME, mouse; settings: mouse; 50 nM; F9 stem or differentiating cells; FIG. 5
Protocol: (§2) ^3 H-4-hydroxyretinol and ^3 H-4-oxo-retinol were purified from RA treated, differentiated F9 cells (ATCC CRL 1720) after the differentiated cells were incubated with ^3 H-retinol for 18 h. The identities of purified ^3 H-4-hydroxyretinol and ^3 H-4-oxo-retinol were verified by matching both the elution times on the HPLC and the spectra of known standards.
(§3) F9 stem cells or retinoic acid-treated cells (72 h) were cultured in the presence of 50 nM of either ^3 H-4-hydroxyretinol or ^3 H-4-oxo-retinol for different periods of time.
(§4) FIGS. 5A-5D depict HPLC analysis after incubation in the presence of 50 nM ^3 H-4-oxo-retinol for periods of time as indicated and extraction using the method described in McClean, S. W., et al (15). The results are the same in both stem and retinoic acid- treated cells.

F9 stem cells [4] = assay: Metabolism / half-life of retinoids in F9 cells; assay type: in vitro ADME, mouse
Protocol: as §2, §3, §4

Water solubility = assay type: physicochemical; settings: no data shown
[5] = tested on: acute promyelocytic leukemia; assay: Treatment of acute promyelocytic leukemia patients; assay type: in vivo, human; settings: oral, 100 mg/square meter per day
Protocol: Patients with morphologic diagnostic criteria for acute promyelocytic leukemia (M3 or M3 variant subtype) by karyotyping or PCR analysis, including the […] (q22; q12-21) translocation, are treated with oral all-trans-4-oxo-retinol at a dose of 100 mg/square meter of body surface area per day. The drug is formulated in soft gelatin capsules which are administered once or twice a day to provide the dose as stated. The drug is administered for 40 to 60 days until remission induction occurs as indicated by normal karyotype, disappearance of coagulation abnormalities (e.g., increased platelet count and plasma fibrinogen level), observation of differentiation of cancer cells and the appearance of mature granulocytic markers in cell surface immunophenotyping, as indicated by reduced number of cells expressing CD33 and greater portion of cells expressing CD16. Patients with newly diagnosed disease then receive all-trans-4-oxo-retinol for 30 days after remission induction; then, either conventional consolidation therapy (e.g., cytosine arabinoside) or continued treatment with all-trans-4-oxo-retinol alone is continued. During remission induction, liver function tests are performed and serum cholesterol and triglycerides are measured twice a week and bone marrow aspiration is performed once a week until complete remission or failure is documented.

[6] = tested on: advanced head and neck cancer; assay: Treatment of patients with advanced head and neck cancer; assay type: in vivo, human; settings: oral, 100 mg/square meter per day; for survival beyond the median: and/or reduced tumor burden
Text: Current systemic chemotherapy regimens are unable to prolong survival of patients with advanced head and neck cancer.

breast cancer = assay: Treatment of patients with breast cancer; assay type: in vivo, human; settings: oral, 100 mg/square meter per day
deep (cystic) acne = assay: Treatment of patients with deep (cystic) acne; assay type: in vivo, human; settings: oral, 100 mg/square meter per day; for mean reduction in lesion counts: end of 3 to 6 months; for acne clearance: after discontinuation
Text: A very prolonged remission, and potentially permanent cure can be obtained.

psoriatic arthritis = assay: Treatment of patients with psoriatic arthritis; assay type: in vivo, human; settings: oral, 50 mg/square meter per day
[7] = tested on: aging or photodamaged skin; assay: Treatment of patients with aging or photodamaged skin; assay type: in vivo, human; settings: oral 100 mg/square meter per day or topical 10 mg per square inch per day, 4 to 8 months
F9 stem cells [8] = assay: Intracellular concentration in differentiating F9 stem cells; assay type: in vitro ADME, mouse; settings: calculated
RAR-β = molecular target: T2, RAR-β (Mus musculus, UniProt P22605); assay: Competitive binding of 3H-all-trans-retinoic acid to RAR-β
T2 sequence (P22605 1-448 isoform P22605-3): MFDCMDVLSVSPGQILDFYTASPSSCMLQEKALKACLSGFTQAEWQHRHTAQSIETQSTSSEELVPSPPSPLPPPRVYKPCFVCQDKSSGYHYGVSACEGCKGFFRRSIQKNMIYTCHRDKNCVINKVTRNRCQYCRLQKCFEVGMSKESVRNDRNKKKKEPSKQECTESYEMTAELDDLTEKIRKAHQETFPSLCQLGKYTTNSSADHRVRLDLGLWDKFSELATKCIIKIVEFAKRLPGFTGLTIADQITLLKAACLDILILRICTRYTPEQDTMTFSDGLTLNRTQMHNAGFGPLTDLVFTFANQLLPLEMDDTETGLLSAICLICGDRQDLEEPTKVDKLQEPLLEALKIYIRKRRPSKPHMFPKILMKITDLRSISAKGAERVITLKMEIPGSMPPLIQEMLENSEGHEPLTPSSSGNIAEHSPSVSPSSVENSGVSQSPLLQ
Protocol: as §6, §7

RAR-γ = molecular target: T3, RAR-γ (Mus musculus, UniProt P18911); assay: Competitive binding of 3H-all-trans-retinoic acid to RAR-γ
T3 sequence (P18911 1-458): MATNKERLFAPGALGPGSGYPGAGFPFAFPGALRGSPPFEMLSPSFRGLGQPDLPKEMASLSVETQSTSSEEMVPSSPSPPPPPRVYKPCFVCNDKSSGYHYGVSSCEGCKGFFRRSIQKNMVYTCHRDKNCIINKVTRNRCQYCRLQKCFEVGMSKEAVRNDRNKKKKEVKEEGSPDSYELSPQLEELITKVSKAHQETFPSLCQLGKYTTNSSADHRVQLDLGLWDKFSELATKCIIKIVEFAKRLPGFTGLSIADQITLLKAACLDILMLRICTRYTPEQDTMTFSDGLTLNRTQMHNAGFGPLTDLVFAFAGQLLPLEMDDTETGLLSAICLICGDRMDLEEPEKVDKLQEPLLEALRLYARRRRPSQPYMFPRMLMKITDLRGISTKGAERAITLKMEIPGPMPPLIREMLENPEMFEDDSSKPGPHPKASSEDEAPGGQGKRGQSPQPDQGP
Protocol: as §6, §7

[9] = Metabolism of 3H-4-hydroxyretinol in F9 cells (HPLC); assay type: in vitro ADME, mouse; settings: mouse, f9 cells; 50 nM, 15 h; virtually identical in stem and retinoic acid-treated cells; read-out: conversion of 4-hydroxyretinol to 4-oxo-retinol
Protocol: as §2, §3
(§5) FIGS. 4A-4D depict HPLC analysis after incubation in the presence of 50 nM ^3 H-4-hydroxyretinol for periods of time as indicated and extraction using the method described in McClean, S. W., et al (15). F9 stem cells are shown in FIGS. 4A-4D to convert 4-hydroxyretinol to 4-oxo-retinol. The rate of this conversion was virtually identical in both stem and retinoic acid-treated cells. This rate was calculated to be about 20% in a period of 15 h.

F9 stem cells [10] = assay: as above; assay type: in vitro ADME, mouse; settings: besides 4-oxo-retinol; 50 nM
Protocol: as §2, §3, §5

RARs α, β, or γ [11] = assay: Inhibition of 3H-all-trans-retinoic acid binding to RARs (stated for all subtypes together); settings: concentrations up to 50,000 nM
Protocol: as §6, §7

RARs α, β, or γ [12] = settings: Mangelsdorf et al (14); cited from earlier work
F9 stem cells [13] = settings: refs (37), (38), cited from earlier work

Row | Structure (SMILES) | IC50 (RAR-α) [nM] | inhibition of 3H-9-cis retinoic acid binding to RXRs (RXRs α, β, or γ) | inhibition of binding of all-trans-3H-retinoic acid to CRABP I [1] | EC50 [2] [nM] | fold induction at 1 µM (Hoxa-1) | fold induction at 1 µM (laminin B1) | tumor burden, head and neck cancer [6] | survival beyond the median [6] | tumor burden, breast cancer (breast cancer) | mean reduction in lesion counts (deep (cystic) acne) | acne clearance (deep (cystic) acne) | psoriatic arthritis symptoms (psoriatic arthritis) | wrinkles, smoothness, pigmented areas of skin [7] | IC50 (RAR-β) [nM] | IC50 (RAR-γ) [nM] | also measured
1 | CC1=C(/C=C/C(C)=C/C=C/C(C)=C/CO)C(C)(C)CCC1=O [4-oxo-retinol, all-trans-4-oxo-retinol] | 330 ± 54 | Neither the 4-hydroxyretinol nor the 4-oxo-retinol inhibited | unable to inhibit | 42 | 25 | 7 | reduced tumor burden | 4-6 months | reduced tumor burden | greater than 85% | in some cases complete clearance occurs | fewer tender joints and a decreased duration of morning stiffness | fewer and reduced depth of wrinkles, increased smoothness of the skin, and a reduction in pigmented areas of the skin | 420 ± 110 | 3200 ± 520 | half-life at 0.05 µM [3]: > 15 h; half-life in F9 stem cells (F9 stem cells [4]; 50 nM, order of magnitude in words): on the order of days; metabolites of 4-oxo-retinol detected (F9 stem cells [4]; 50 nM, presumed 4-oxo-retinyl esters): small amounts of several very hydrophobic retinoids; stability in F9 stem vs differentiating cells (F9 stem cells [4]; comparison of F9 stem and differentiating cells): equally stable; induction of enzyme degrading the retinoid (F9 stem cells [4]; summary statement, vs all-trans-retinoic acid): does not induce production of enzyme which degrades it to inactive form; 4-oxo-retinoic acid formed from 4-oxo-retinol (F9 stem cells [4]; up to 15 h, 50 nM): No 4-oxo-retinoic acid was detected; water solubility compared with all-trans-retinoic acid (Water solubility): more water soluble; outcome of treatment in acute promyelocytic leukemia [5]: Long term cures are considered to be obtainable; intracellular concentration (F9 stem cells [8]): approximately 85 nM; inhibition of 3H-retinoic acid binding to RAR-γ, fold weaker than RAR-α and RAR-β (RAR-γ; relative to RAR-α and RAR-β, 240 min): 10 fold
2 | CC1=C(/C=C/C(C)=C/C=C/C(C)=C/CO)C(C)(C)CCC1O (stereo not drawn) [4-OH retinol] | 5000 ± 1400 | Neither the 4-hydroxyretinol nor the 4-oxo-retinol inhibited | unable to inhibit | 76 | 9 | 3 | reduced tumor burden | 4-6 months | reduced tumor burden | greater than 85% | in some cases complete clearance occurs | fewer tender joints and a decreased duration of morning stiffness | fewer and reduced depth of wrinkles, increased smoothness of the skin, and a reduction in pigmented areas of the skin | 3800 ± 1100 | 3400 ± 1600 | metabolised at 15 h, 0.05 µM [9]: ~20%; other metabolites of 4-hydroxyretinol (F9 stem cells [10]): No other metabolite
3 | CC1=C(/C=C/C(C)=C/C=C/C(C)=C/CO)C(C)(C)CCC1 [retinol, reference compound] | – | – | – | > 3000 | 4 | 2 | – | – | – | – | – | – | – | – | – | inhibition of 3H-9-cis retinoic acid binding to the RXRs (RXRs α, β, or γ; concentrations up to 50,000 nM): no apparent inhibition; inhibition of all-trans-3H-retinoic acid binding to any of the RARs (RARs α, β, or γ [11]): no apparent inhibition
4 | CC1=C(/C=C/C(C)=C/C=C/C(C)=C/C(=O)O)C(C)(C)CCC1 [RA, all-trans-retinoic acid] | – | – | – | 9 | – | – | – | – | – | – | – | – | – | – | – | binding to α-, β- and γ-retinoic acid receptors (RARs α, β, or γ [12]): binds equally well to α-, β-, and γ-retinoic acid receptors; half-life in differentiated retinoic acid-treated F9 stem cells (F9 stem cells [13]; differentiated, enzyme induced): < 3 h; half-life in F9 stem cells (F9 stem cells [13]; undifferentiated): 3 h
